Reference: US7211574B2, “Selective D1/D5 receptor antagonists for the treatment of obesity and CNS disorders” (Schering Corporation, priority 2002, dated 2007)
Where two headings read alike, the source gives them in different places.

Experiments:
[1] = target: T1, human D2 (long variant) receptor (Homo sapiens, UniProt P14416); assay: radioligand binding competition assay, D2; conditions: membranes of Ltk- cells expressing D2 (long variant); 0.2 nM [3H] Methylspiperone; 1 hour at room temperature
T1 construct: expressed in transfected cells; host or cells: Ltk- cells (mouse fibroblast line), membrane preparation
Experimental: (§1) Affinity values (Ki) of compounds at human D1 and D2 receptors were ascertained using radioligand binding competition assays. Ltk- cells expressing D1 and D2 (long variant) receptors were lysed in hypotonic buffer for membrane preparation. Membranes were incubated with various concentrations of test compound and 1 nM [3H] of a compound of formula III and 0.2 nM [3H] Methylspiperone for D1 and D2 assays, respectively. Non-specific binding was defined as binding in the presence of 10 micromolar of a compound of formula III for D1 assays and 10 micromolar butaclamol for […]. Following incubation to equilibrium (1 hour at room temperature), bound radioligand was separated from free by rapid filtration. Bound radioactivity on the dried filters was quantified by liquid scintillation counting.

human D1 receptor = target: T2, human D1 receptor (Homo sapiens, UniProt P21728); assay: radioligand binding competition assay, D1
T2 construct: expressed in transfected cells; host or cells: Ltk- cells (mouse fibroblast line), membrane preparation
Experimental: as §1

[2] = membranes of Ltk- cells expressing D1, 1 nM [3H] compound of formula III, 1 hour at room temperature, read-out: D1 (Ki)

T2 sequence (P21728 whole entry): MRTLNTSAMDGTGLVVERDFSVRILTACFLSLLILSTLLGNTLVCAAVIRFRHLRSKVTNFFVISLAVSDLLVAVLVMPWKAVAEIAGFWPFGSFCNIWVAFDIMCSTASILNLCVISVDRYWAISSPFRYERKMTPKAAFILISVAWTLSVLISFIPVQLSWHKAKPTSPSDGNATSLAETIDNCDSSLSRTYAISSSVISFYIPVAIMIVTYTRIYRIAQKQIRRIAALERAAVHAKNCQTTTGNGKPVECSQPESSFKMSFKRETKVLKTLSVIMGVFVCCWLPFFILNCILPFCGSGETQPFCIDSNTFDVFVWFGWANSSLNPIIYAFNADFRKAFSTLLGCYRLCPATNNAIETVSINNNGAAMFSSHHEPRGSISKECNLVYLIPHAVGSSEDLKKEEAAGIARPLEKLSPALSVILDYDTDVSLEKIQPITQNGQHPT

Row | Structure (SMILES) | Ki (human D1 receptor; [2]) | Ki [1] | Ki (human D1 receptor)
1 | Cc1cc2c3c(cc(Cl)c2[nH]1)CCN(C)[C@H]1CCc2ccccc2[C@H]31 [Compound 8] |  | 232 nM | 24.7 nM
2 | CN1CCc2cc(Cl)c3[nH]cnc3c2[C@H]2c3ccccc3CC[C@@H]21 [Compound 13A] | 248 nM | 984 nM | 
3 | CN1CCc2cc(Cl)c3[nH]nnc3c2[C@H]2c3ccccc3CC[C@@H]21 [Compound 15A] | 146 nM | 1530 nM | 
4 | CN1CCc2cc(Cl)c3[nH]c(O)nc3c2[C@H]2c3ccccc3CC[C@@H]21 [Compound 16A] |  | 1020 nM | 7 nM
5 | CN1CCc2cc(Cl)c3[nH]c(=S)[nH]c3c2[C@H]2c3ccccc3CC[C@@H]21 [Compound 17A] |  | 1040 nM | 40 nM
6 | Oc1nc2c(Cl)cc3c(c2[nH]1)[C@H]1c2ccccc2CC[C@@H]1NCC3 [Compound 18A] |  | 3270 nM | 16.5 nM
7 | Oc1nc2c(Cl)cc3c(c2[nH]1)[C@@H](c1ccccc1)CNCC3 [Compound 18B] | 1900 nM |  | 
8 | O=c1[nH]c2c(Cl)cc3c(c2[nH]1)[C@H]1c2cccc(Br)c2CC[C@@H]1NCC3 [Compound 18C] | 11.3 nM | 648 nM | 
9 | CN1CCc2cc(Cl)c3[nH]c(=O)sc3c2[C@H]2c3ccccc3CC[C@@H]21 [Compound 25A] |  | 257 nM | 2.1 nM
10 | CN1CCc2cc(Cl)c3nc(O)sc3c2[C@@H](c2ccccc2)C1 [Compound 25B] | 115 nM | 2890 nM | 
11 | O=c1[nH]c2c(Cl)cc3c(c2s1)[C@H]1c2ccccc2CC[C@@H]1NCC3 [Compound 26A] |  | 661 nM | 6.5 nM
12 | O=c1[nH]c2c(Cl)cc3c(c2s1)[C@@H](c1ccccc1)CNCC3 [Compound 26B] | 1080 nM | 3200 nM | 
13 | CN1CCc2cc(Cl)c3[nH]c(=O)[nH]c3c2[C@H]2c3cccc(-c4ccccc4)c3CC[C@@H]21 [Compound 27] | 1.9 nM | 336 nM | 

Second part, led by results:

Row | Ki (human D1 receptor; [2]) | Structure (SMILES) | Ki [1] | Ki (human D1 receptor)
14 | 14 nM | CN1CCc2cc(Cl)c3[nH]ncc3c2[C@@H](c2ccccc2)C1 [Compound 4] | 3550 nM | 
15 | 183 nM | Clc1cc2c(c3cn[nH]c13)[C@@H](c1ccccc1)CNCC2 [Compound 6] | 5010 nM | 
16 | 350 nM | CN1CCc2cc(Cl)c3[nH]c(O)nc3c2[C@@H](c2ccccc2)C1 [Compound 16B] |  | 
17 | 6.1 nM | CN1CCc2cc(Cl)c3[nH]c(=O)[nH]c3c2[C@H]2c3cccc(Br)c3CC[C@@H]21 [Compound 16C] | 172 nM | 
18 | 1790 nM | CN1CCc2cc(Cl)c3[nH]c(=S)[nH]c3c2[C@@H](c2ccccc2)C1 [Compound 17B] |  | 
